{"source": "patent US9399032B2", "about": "“Methods and compositions for treating degenerative and ischemic disorders” (The General Hospital Corporation, priority 2009, dated 2016)", "key": {"[1]": {"test_system": "Mitochondria isolated from C57BL/6 mouse kidneys", "assay": "Bioenergetics of isolated mitochondria", "assay_type": "biochemical", "conditions": "acute addition", "method": "Mootha et al., Am J Physiol 272:[…] (1997). State 2 respiration was initiated with the addition of 2.5 mM glutamate and 2.5 mM malate. State 3 respiration was initiated with the addition of 50 nmoles ADP. Uncoupled respiration was initiated with the addition of 5 μM CCCP (Sigma Cat No C2759). O2 consumption was monitored with a Fiber Optic Oxygen sensor probe from Ocean Optics, and NADH (endogenous, 370±7 nm excitation, 440±4 nm emission) and membrane potential (1.25 μM TMRM, 546±7 nm excitation, 590±4 nm emission) were measured with a Perkin-Elmer LS50B fluorimeter. A representative trace is shown from 6 independent experiments. 1M stock of phosphoethanolamine (Sigma P0503) was made in sterile water and pH was adjusted to 7.4 by 1N potassium hydroxide solution."}, "[2]": {"test_system": "purified recombinant PCYT2", "assay": "PCYT2 enzyme assay in vitro", "assay_type": "biochemical", "conditions": "50-1000 μM meclizine or 50-600 μM S-meclizine", "method": "FIGS. 16 C-D are line graphs showing that PCYT2 (CTP:phosphoethanolamine cytidylyltransferase 2) is a target of meclizine (16C) and S-meclizine (16D). PCYT2 enzyme assays were carried out in vitro with purified recombinant PCYT2 in the presence of 50-1000 μM meclizine or 50-600 μM of S-meclizine.\nCTP:Phosphoethanolamine Cytidylyltransferase (PCYT2) catalyzes the formation of CDP-ethanolamine, which is often the rate regulatory step in the PE-Kennedy pathway. See, e.g., Fullerton et al., J Biol Chem 18; 284(38):25704-13 (2009). To determine whether meclizine affects PCYT2 activity, PCYT2 (CTP:phosphoethanolamine cytidylyltransferase 2) enzyme assays were carried out in vitro with purified recombinant PCYT2 in the presence of 50-1000 μM meclizine or 50-600 μM of S-meclizine. For additional details see Zhu et al., J Lipid Res 49: 2197 (2008)."}, "293 cells": {"test_system": "293 cells", "assay": "Uncoupler (CCCP)-stimulated respiration in intact cells", "assay_type": "cell-based", "conditions": "25 μM, 6 hours pre-treatment", "method": "293 cells pre-treated with 25 μM meclizine for 6 hours fail to stimulate oxygen consumption to the same extent as DMSO treated controls after treatment with CCCP. Data expressed as mean±SD (n=3; *p value<0.01).\nThe upregulation of phosphoethanolamine was confirmed by orthogonal chromatography, as well as via ^31P-NMR. […] Previous studies have shown that phosphoethanolamine can be elevated in tumor cells, and that ethanolamine and PEA can directly silence mitochondrial OXPHOS. Zhu et al., J Lipid Res 49: 2197 (2008); and Modica-Napolitano et al., Biol Psychiatry 55:273 (2004). To test the effect of phosphoethanolamine (PEA) on mitochondrial respiration, mitochondria were incubated with varying concentration of phosphoethanolamine for ˜1 min prior to the addition of 2.5 mM glutamate and 2.5 mM malate followed by the addition of 1 μM CCCP. […] See FIGS. 16A and 16B, respectively."}, "[3]": {"test_system": "STHdhQ111/111 striatal cells", "assay": "Viability of mutant huntingtin striatal cells after serum withdrawal (CellTiter-Glo)", "assay_type": "cell-based, murine", "method": "Wherever indicated, mutant (STHdh^Q111/111) striatal cells were grown in serum free media for ˜24 hours before ATP measurement. Luminescence was measured in DTX880 multimode detector. Multiple concentrations (between 100 μM and 0.5 μM) of rotenone, antimycin, oligomycin, meclizine, hydroxyzine (Spectrum chemical), thiethylperazine (Prestwick), cyproheptadine (Sigma), pyrilamine (Spectrum chemical), tripelennamine (Spectrum chemical), diphenhydramine (Spectrum chemical), clemastine (Prestwick), bromopheniramine (Spectrum chemical), pheniramine (Spectrum chemical), promethazine (MSDiscovery 01500510), atropine (Sigma), and scopolamine (Sigma) were tested for their protective effect on STHdh^Q111/111 cells in serum free media. The dose which conferred maximum protection is shown. Luminescence was measured in DTX880 multimode detector.\nAlthough it is not necessary to understand the mechanism of an invention, it is believed that the observed cell survival may be due to suppressed apoptosis based on caspase 3 and 7 cleavage. Improved cell viability was confirmed by microscopy."}, "caspase 3 and caspase 7": {"test_system": "caspase 3 and caspase 7", "assay": "Western blot of cleaved caspase 3 and 7 after serum withdrawal", "assay_type": "cell-based, murine", "conditions": "50 μM, up to 24 hours after serum withdrawal", "method": "Western blot analysis was performed as follows. Murine STH^Q111/111 striatal cells expressing mutant huntingtin protein were grown to ˜75% confluency in 15 cm cell culture plate. Then serum containing medium was replaced with serum free media with either 0.1% DMSO or 50 μM meclizine and total protein was extracted at 0, 4, 10 and 24 hours post serum withdrawal and drug treatment in cell lysis buffer (Cell Signaling Cat No. 9803).\nProtein concentration was determined using BCA protein assay kit (Thermo Scientific Cat No. 23227). SDS PAGE was performed using NuPAGE 4-12% Bis-Tris gel from Invitrogen (NP0321). 15 μg of protein was loaded per lane. Western blotting was performed as per the standard procedures. Cleaved Caspase 3 (Cat. No. 9661), Cleaved Caspase 7 (Cat. No. 9491), p-ERK ([…]; Cat No. 9803), and AKT (Cat. No. 9803) antibodies were obtained from Cell Signaling. β-Actin antibody was purchased from Sigma (A1978)."}, "[4]": {"test_system": "isolated, ex vivo, hearts", "assay": "Ischemia-reperfusion in isolated ex vivo retrograde-perfused (Langendorf) hearts", "conditions": "compared to untreated controls", "method": "The effect of meclizine in isolated, ex vivo, hearts was assessed using retrograde-perfused hearts and the Langendorf heart (Nadtochiy et al., Biochem. J., 395:611-618 (2006)). Hearts were then subjected to a period of ischemia followed by reperfusion."}, "C2C12 myotubes": {"test_system": "C2C12 myotubes", "assay": "[3H]-2-deoxyglucose uptake", "assay_type": "cell-based", "conditions": "50 micromolar, four hours", "method": "Fully differentiated C2C12 myotubes were subjected to a glucose uptake protocol, as follows. Briefly, C2C12 myotube cells were incubated for four hours in serum-free media containing either 0.1% DMSO as a control, 50 micromolar meclizine, 50 micromolar S-meclizine, or 2 mM metformin. Cells were subsequently incubated for thirty minutes in serum and glucose free buffer and then transitioned to buffer containing [3H]-2-deoxyglucose for five minutes. After multiple wash steps, cells were lysed and the lysate was subjected to scintillation counting to quantify uptake. Data were prepared as raw counts per minute, which is proportional to 2-deoxyglucose uptake."}, "[5]": {"assay": "Blood glucose levels in R6 mice", "assay_type": "in vivo"}}, "note": "Structures can show the parent of a compound that is named as a salt.", "data": [{"smiles": "Cc1cccc(CN2CCN(C(c3ccccc3)c3ccc(Cl)cc3)CC2)c1", "note": "(racemic) [Meclizine, meclizine hydrochloride]", "values": [{"measurement": "mitochondrial oxygen consumption in isolated mitochondria", "setting": "[1]", "result": "had no effect"}, {"measurement": "PCYT2 binding and inhibition", "setting": "[2]", "result": "binD to, and inhibit"}, {"measurement": "uncoupler-stimulated respiration in intact cells", "setting": "293 cells", "result": "blunts uncoupler-stimulated respiration"}, {"measurement": "EC50", "setting": "[3]; Mus musculus, STHdhQ111, 24 hours after removal of serum, read-out: EC50 of cell survival (rescue)", "result": "~17.3", "unit": "µM"}, {"measurement": "protection of STHdhQ111/111 cells after serum withdrawal", "setting": "[3]; serum free media, 24 hours", "result": "conferred the most protection"}, {"measurement": "serum deprivation-induced activation of caspase 3 and caspase 7", "setting": "caspase 3 and caspase 7", "result": "prevented"}, {"measurement": "infarct size (heart)", "setting": "[4]", "result": "smaller infarct size"}, {"measurement": "rate pressure after I/R", "setting": "[4]", "result": "increase in rate pressure"}, {"measurement": "basal glucose uptake", "setting": "C2C12 myotubes", "result": "promoted increased basal glucose uptake"}, {"measurement": "blood glucose levels", "setting": "[5]", "result": "reduces blood glucose levels"}]}]}
